From ChEMBL document CHEMBL1125871, “Inhibitors of cholesterol biosynthesis. 4. trans-6-[2-(substituted-quinolinyl)ethenyl/ethyl]tetrahydro-4-hydroxy-2 H-pyran-2-ones, a novel series of HMG-CoA reductase inhibitors” (J Med Chem, 1991)

Tests used:
[1] = organism: Rattus norvegicus; assay: Compound was tested for its Cholesterol Synthesis Inhibition ability in rats.; type: functional, organism-based
[2] = organism: Rattus norvegicus; assay: (§1) Compound was tested for its relative Cholesterol Synthesis Inhibition as compared to compactin in rats.; type: functional
[3] = organism: Rattus norvegicus; assay: Compound was evaluated for the percentage of acute inhibition of cholesterol synthesis (AICS) in male rats through peroral rout.; type: functional; parameters: concentration or dose not given beside the values
[4] = target: T1, 3-hydroxy-3-methylglutaryl-coenzyme A reductase (Rattus norvegicus, UniProt P51639); assay: Compound was evaluated for the inhibition of HMG-CoA reductase (COR) in rats.
T1 sequence (P51639 whole entry): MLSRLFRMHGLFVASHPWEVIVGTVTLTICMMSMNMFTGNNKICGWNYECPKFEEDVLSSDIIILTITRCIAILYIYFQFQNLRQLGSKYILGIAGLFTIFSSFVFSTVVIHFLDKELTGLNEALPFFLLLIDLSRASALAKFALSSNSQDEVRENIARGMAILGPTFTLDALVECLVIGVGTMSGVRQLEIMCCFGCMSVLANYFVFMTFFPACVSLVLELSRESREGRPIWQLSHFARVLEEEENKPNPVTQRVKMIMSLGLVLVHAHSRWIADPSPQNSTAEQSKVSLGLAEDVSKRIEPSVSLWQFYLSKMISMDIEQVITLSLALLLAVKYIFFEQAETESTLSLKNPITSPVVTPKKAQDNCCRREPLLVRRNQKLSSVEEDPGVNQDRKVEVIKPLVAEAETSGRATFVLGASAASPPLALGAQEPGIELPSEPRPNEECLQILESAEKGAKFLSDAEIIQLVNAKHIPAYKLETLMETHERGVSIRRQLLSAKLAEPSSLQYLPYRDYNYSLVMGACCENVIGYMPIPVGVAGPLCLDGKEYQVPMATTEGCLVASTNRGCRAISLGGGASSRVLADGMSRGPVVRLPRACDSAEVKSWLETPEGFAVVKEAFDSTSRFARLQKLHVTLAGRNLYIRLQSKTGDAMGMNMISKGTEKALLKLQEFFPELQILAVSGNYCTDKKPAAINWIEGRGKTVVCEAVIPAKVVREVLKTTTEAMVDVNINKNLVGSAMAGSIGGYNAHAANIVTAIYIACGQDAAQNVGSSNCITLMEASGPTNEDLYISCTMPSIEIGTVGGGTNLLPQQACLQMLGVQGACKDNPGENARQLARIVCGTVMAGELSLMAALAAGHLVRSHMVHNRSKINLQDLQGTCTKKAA

[5] = as §1; type: functional

| SMILES | IC50 [1] | Relative inhibition [2] | Inhibition [3] | IC50 [4] | Relative inhibition [5] |
| --- | --- | --- | --- | --- | --- |
| Cc1cnc2ccccc2c1/C=C/[C@@H]1C[C@@H](O)CC(=O)O1 | > 1000 nM | <1 | 42% | – | – |
| CC[C@H](C)C(=O)O[C@H]1CCC=C2C=C[C@H](C)[C@H](CC[C@@H]3C[C@@H](O)CC(=O)O3)[C@H]21 [MEVASTATIN] | 30 nM | – | 36% | – | – |
| COc1ccc2nc(C(C)C)c(/C=C/[C@@H]3C[C@@H](O)CC(=O)O3)c(-c3ccc(F)cc3)c2c1 | 13 nM | 100 | 60% | 53 nM | – |
| CC(C)c1nc2ccc(F)cc2c(-c2ccc(F)cc2)c1/C=C/[C@@H]1C[C@@H](O)CC(=O)O1 (stereo in doubt; 17) | – | – | 69% | – | – |
| Cc1nc2ccc(Cl)cc2c(-c2ccc(F)cc2)c1/C=C/[C@@H]1C[C@@H](O)CC(=O)O1 | 400 nM | 6.3 | 18% | 720 nM | – |
| CC(C)c1nc2ccc(Cl)cc2c(-c2ccc(F)cc2)c1/C=C/[C@@H]1C[C@@H](O)CC(=O)O1 | 32 nM | 100 | 61% | 25 nM | – |
| CC(C)c1nc2ccccc2c(-c2ccc(F)cc2)c1CC[C@@H]1C[C@@H](O)CC(=O)O1 | > 1000 nM | <1 | – | – | – |
| CC[C@H](C)C(=O)O[C@H]1C[C@@H](C)C=C2C=C[C@H](C)[C@H](CC[C@@H]3C[C@@H](O)CC(=O)O3)[C@H]21 [LOVASTATIN] | 25 nM | 118 | 72% | 28 nM | – |
| CC(C)c1nc2ccc(F)cc2c(-c2ccc(F)cc2)c1/C=C/[C@@H]1C[C@@H](O)CC(=O)O1 (stereo in doubt; 8d) | 50 nM | 77.6 | 68% | 200 nM | – |
| CC(C)c1c(/C=C/[C@@H]2C[C@@H](O)CC(=O)O2)c(-c2ccc(F)cc2)c2cc(F)ccc2[n+]1[O-] | 18 nM | – | 47% | 79 nM | 112 |
| CN(C)c1nc2ccccc2c(-c2ccc(F)cc2)c1/C=C/[C@@H]1C[C@@H](O)CC(=O)O1 | 47 nM | 13.2 | 52% | 350 nM | – |
| CC(C)c1nc2ccccc2c(-c2ccc(F)cc2)c1/C=C/[C@@H]1C[C@@H](O)CC(=O)O1 | 42 nM | 75.8 | 70% | 32 nM | – |
